US20190225650A1, “PEPTIDOMIMETIC MACROCYCLES AND USE THEREOF IN REGULATING HIF1ALPHA” (AILERON THERAPEUTICS, INC., priority 2013, published 2019)
Bridge positions count the residues as written; N and C are the ends. Square brackets hold non-standard residues; d marks the D form. Peptide text beside a SMILES is read from it. R8 = C=CCCCCCC[C@@](C)(N)C(=O)O; Cba = N[C@@H](CC1CCC1)C(=O)O; S5 = C=CCCC[C@](C)(N)C(=O)O; Nle = CCCC[C@H](N)C(=O)O

Columns and labels:
[1] = target: T1, flag-tagged HIF1α (AA 786-826) / His6-tagged p300 (AA 323-423) complex (Homo sapiens, UniProt Q09472); assay: HIF1α p300 displacement assay (TR FRET, +CHAPS); format: binding; details: read-out: IC50 (nM) (HIF1α_p300 Displacement + CHAPS)
T1 construct: His6-tagged p300 (AA 323-423); made in house; host or cells: E. coli (pETDuet vector)
Summary of the method: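 In this TR-FRET displacement format, peptides compete HIF1α C-terminal transactivation domain off p300-CH. They were preincubated 1 h at room temperature with 300 nM complex in HEPES pH 7.4/NaCl buffer with 7.5 mM CHAPS and 1 mM DTT. Anti-His-D2 (4 nM) and anti-Flag-K (0.5 μM) followed for 2 h, and a one-site fit of the fluorescence ratio gave IC50.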

HRE-bla ME-180 cells = assay: Reporter gene assay (HRE-bla ME-180 HIF reporter, GeneBLAzer); format: cell-based, human; details: for EC50: 24 hour normoxia
Summary of the method: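 A FRET β-lactamase readout of HIF transcription was used. After compound treatment in 0.3% DMSO/media under normoxic conditions, 20 μl of 6× LiveBLAzer-FRET B/G (CCF4-AM) substrate was added. Plates sat 3 hr at room temperature in the dark and were read at 409 Ex/460Em and 409Ex/530Em on a Synergy 2. Inhibition was compared against DMSO vehicle controls, with chetomin as positive control.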

SMILES	IC50 [1] [nM]	EC50 (HRE-bla ME-180 cells) [µM]	18 h Avg % max inhibition at top conc (HIF Rptr-24 hrs normoxia) (μM) (HRE-bla ME-180 cells)
CCCC[C@H](NC(=O)[C@H](CC(C)C)NC(=O)[C@@H](NC(=O)[C@H](CCC(=O)O)NC(=O)[C@H](CCC(=O)O)NC(=O)[C@H](CC(=O)O)NC(=O)[C@@H](NC(=O)[C@H](Cc1ccccc1)NC(C)=O)[C@@H](C)CC)C(C)C)C(=O)N[C@@]1(C)CCCC=CCCC[C@@](C)(C(=O)N[C@@H](CCCC)C(=O)N[C@@H](C)C(=O)N[C@@H](CC(C)C)C(N)=O)NC(=O)[C@H]([C@@H](C)CC)NC(=O)[C@H](C(C)C)NC(=O)[C@H](Cc2ccccc2)NC1=O [SP-219] (Ac-FIDEEVL[Nle][S5]FVI[S5][Nle]AL-NH2; staple 9-13)	400 to 700	> 30	++ (≤10 but <25: ++)
CC[C@H](C)[C@H](NC(=O)[C@H](Cc1ccccc1)NC(C)=O)C(=O)N[C@@H](CC(=O)O)C(=O)N[C@@H](CCC(=O)O)C(=O)N[C@@]1(C)CCCC=CCCC[C@@](C)(C(=O)N[C@@H](CC(C)C)C(=O)N[C@H](C(=O)N[C@H](C(=O)N[C@@H](CCC(=O)O)C(=O)N[C@@H](CCSC)C(=O)N[C@@H](C)C(=O)N[C@@H](CC(C)C)C(=O)N[C@@H](CC(=O)O)C(=O)N[C@@H](CCCNC(=N)N)C(=O)N[C@H](C(=O)N[C@@H](CCCCN)C(=O)N[C@@H](CCC(=O)O)C(=O)N[C@@H](CC(C)C)C(=O)N2CCC[C@H]2C(=O)N[C@@H](CCC(=O)O)C(=O)N[C@@H](CC(C)C)C(=O)N[C@@H](Cc2c[nH]c3ccccc23)C(=O)N[C@@H](CC(C)C)C(N)=O)[C@@H](C)CC)[C@@H](C)CC)C(C)C)NC(=O)[C@H](CCSC)NC(=O)[C@H](CC(C)C)NC(=O)[C@H](C(C)C)NC1=O [SP-107] (Ac-FIDE[S5]VLM[S5]LVIEMALDRIKELPELWL-NH2; staple 5-9)	≤ 200	> 30	–
CC[C@H](C)[C@H](NC(=O)[C@H](Cc1ccccc1)NC(C)=O)C(=O)N[C@@H](CC(=O)O)C(=O)N[C@@H](CCC(=O)O)C(=O)N[C@@H](CCC(=O)O)C(=O)N[C@H](C(=O)N[C@@H](CC(C)C)C(=O)N[C@@H](CCSC)C(=O)N[C@@]1(C)CCCC=CCCC[C@@](C)(C(=O)N[C@@H](CCSC)C(=O)N[C@@H](C)C(=O)N[C@@H](CC2CCC2)C(N)=O)NC(=O)[C@H]([C@@H](C)CC)NC(=O)[C@H](C(C)C)NC(=O)[C@H](CC(C)C)NC1=O)C(C)C [SP-237] (Ac-FIDEEVLM[S5]LVI[S5]MA[Cba]-NH2; staple 9-13)	> 700	> 30	+++ (≤25 but <50: +++)
CCCC[C@H](NC(=O)[C@H](C)NC(=O)[C@@H](NC(=O)[C@@H](NC(=O)[C@H](CC(C)C)NC(=O)[C@]1(C)CCCC=CCCC[C@](C)(NC(=O)[C@H](CCC(=O)O)NC(=O)[C@H](C)NC(=O)[C@@H](NC(=O)[C@H](Cc2ccccc2)NC(C)=O)[C@@H](C)CC)C(=O)N[C@@H](C(C)C)C(=O)N[C@@H](CC(C)C)C(=O)N[C@@H](CCCC)C(=O)N1)C(C)C)[C@@H](C)CC)C(=O)N[C@@H](C)C(=O)N[C@@H](CC(C)C)C(=O)N[C@@H](CC(=O)O)C(=O)N[C@@H](C)C(=O)N[C@H](C(N)=O)[C@@H](C)CC [SP-121] (Ac-FIAE[S5]VL[Nle][S5]LVIA[Nle]ALDAI-NH2; staple 5-9)	400 to 700	> 30	–
CCCC[C@@H]1NC(=O)[C@H](CC(C)C)NC(=O)[C@H](CCCNC(=N)N)NC(=O)[C@@](C)(NC(=O)[C@H](CCC(=O)O)NC(=O)[C@H](CC(=O)O)NC(=O)[C@@H](NC(=O)[C@H](Cc2ccccc2)NC(C)=O)[C@@H](C)CC)CCCC=CCCCC2(CCCC=CCCC[C@](C)(C(=O)N[C@@H](CCCC)C(=O)N[C@@H](C)C(=O)N[C@@H](CC(C)C)C(N)=O)NC(=O)[C@H]([C@@H](C)CC)NC(=O)[C@H](C(C)C)NC(=O)[C@H](CC(C)C)NC2=O)NC1=O (stereo partly shown) [SP-206]	> 700	> 30	+ (<10: +)
CCCC[C@H](NC(=O)[C@H](C)NC(=O)[C@]1(C)CCCC=CCCCCCC[C@@](C)(NC(=O)[C@H](CCC(=O)O)NC(=O)[C@H](C)NC(=O)[C@@H](NC(=O)[C@H](Cc2ccccc2)NC(C)=O)[C@@H](C)CC)C(=O)N[C@@H](C(C)C)C(=O)N[C@@H](CC(C)C)C(=O)N[C@@H](CCCC)C(=O)N[C@@H](CO)C(=O)N[C@@H](CC(C)C)C(=O)N[C@@H](C(C)C)C(=O)N1)C(=O)N[C@@H](C)C(=O)N[C@@H](CC(C)C)C(=O)N[C@@H](CC(=O)O)C(=O)N[C@@H](C)C(=O)N[C@H](C(N)=O)[C@@H](C)CC [SP-193] (Ac-FIAE[R8]VL[Nle]SLV[S5]A[Nle]ALDAI-NH2; staple 5-12)	400 to 700	> 30	+ (<10: +)
CCCC[C@H](NC(=O)[C@H](CCCNC(=N)N)NC(=O)[C@H](CC(=O)O)NC(=O)[C@H](CC(C)C)NC(=O)[C@H](C)NC(=O)[C@H](CCCC)NC(=O)[C@H](C)NC(=O)[C@@H](NC(=O)[C@@H](NC(=O)[C@H](CC(C)C)NC(=O)[C@]1(C)CCCC=CCCC[C@](C)(NC(=O)[C@H](CCC(=O)O)NC(=O)[C@H](CC(=O)O)NC(=O)[C@@H](NC(=O)[C@H](Cc2ccccc2)NC(C)=O)[C@@H](C)CC)C(=O)N[C@@H](C(C)C)C(=O)N[C@@H](CC(C)C)C(=O)N[C@@H](CCCC)C(=O)N1)C(C)C)[C@@H](C)CC)C(N)=O [SP-125] (Ac-FIDE[S5]VL[Nle][S5]LVIA[Nle]ALDR[Nle]-NH2; staple 5-9)	200 to 400	> 30	+ (<10: +)
CCCC[C@H](NC(=O)[C@H](C)NC(=O)[C@H](C)NC(=O)[C@H](CCCC)NC(=O)[C@H](C)NC(=O)[C@H](CCCC)NC(=O)[C@H](CC(C)C)NC(=O)[C@@H](NC(=O)[C@@H](NC(=O)[C@H](CC(C)C)NC(=O)[C@]1(C)CCCC=CCCC[C@](C)(NC(=O)[C@H](CCC(=O)O)NC(=O)[C@H](CC(=O)O)NC(=O)[C@@H](NC(=O)[C@H](Cc2ccccc2)NC(C)=O)[C@@H](C)CC)C(=O)N[C@@H](C(C)C)C(=O)N[C@@H](CC(C)C)C(=O)N[C@@H](CCCC)C(=O)N1)C(C)C)[C@@H](C)CC)C(N)=O [SP-126] (Ac-FIDE[S5]VL[Nle][S5]LVIL[Nle]A[Nle]AA[Nle]-NH2; staple 5-9)	200 to 400	15 to 30	++++ (≥50: ++++)

More lines, main results first:

IC50 [1] [nM]	EC50 (HRE-bla ME-180 cells) [µM]	SMILES	18 h Avg % max inhibition at top conc (HIF Rptr-24 hrs normoxia) (μM) (HRE-bla ME-180 cells)
> 700	> 30	CCCC[C@H](NC(=O)[C@H](CCCNC(=N)N)NC(=O)[C@@H](NC(=O)[C@@H](NC(=O)[C@H](CC(C)C)NC(=O)[C@]1(C)CCCC=CCCC[C@](C)(NC(=O)[C@H](CCC(=O)O)NC(=O)[C@H](CC(=O)O)NC(=O)[C@@H](NC(=O)[C@H](Cc2ccccc2)NC(C)=O)[C@@H](C)CC)C(=O)N[C@@H](C(C)C)C(=O)N[C@@H](CC(C)C)C(=O)N[C@@H](CCCC)C(=O)N1)C(C)C)[C@@H](C)CC)C(=O)N[C@@H](C)C(=O)N[C@@H](CC(C)C)C(N)=O [SP-157] (Ac-FIDE[S5]VL[Nle][S5]LVIR[Nle]AL-NH2; staple 5-9)	+ (<10: +)
≤ 200	> 30	CCCC[C@H](NC(=O)[C@H](CCC(=O)O)NC(=O)[C@@H](NC(=O)[C@@H](NC(=O)[C@H](CC(C)C)NC(=O)[C@]1(C)CCCC=CCCC[C@](C)(NC(=O)[C@H](CCC(=O)O)NC(=O)[C@H](C)NC(=O)[C@@H](NC(=O)[C@H](Cc2ccccc2)NC(C)=O)[C@@H](C)CC)C(=O)N[C@@H](C(C)C)C(=O)N[C@@H](CC(C)C)C(=O)N[C@@H](CCCC)C(=O)N1)C(C)C)[C@@H](C)CC)C(=O)N[C@@H](C)C(=O)N[C@@H](CC(C)C)C(=O)N[C@@H](CC(=O)O)C(=O)N[C@@H](C)C(=O)N[C@H](C(N)=O)[C@@H](C)CC [SP-120] (Ac-FIAE[S5]VL[Nle][S5]LVIE[Nle]ALDAI-NH2; staple 5-9)	+ (<10: +)
400 to 700	≤ 5	CCCC[C@H](NC(=O)[C@H](CCC(=O)O)NC(=O)[C@@H](NC(=O)[C@@H](NC(=O)[C@H](CC(N)=O)NC(=O)[C@]1(C)CCCC=CCCC[C@](C)(NC(=O)[C@H](C)NC(=O)[C@H](CC(=O)O)NC(=O)[C@@H](NC(=O)[C@H](Cc2ccccc2)NC(C)=O)[C@@H](C)CC)C(=O)N[C@@H]([C@@H](C)O)C(=O)N[C@@H](CC(C)C)C(=O)N[C@@H](CCCC)C(=O)N1)C(C)C)[C@@H](C)CC)C(=O)N[C@@H](C)C(=O)N[C@@H](CC(C)C)C(N)=O [SP-151] (Ac-FIDA[S5]TL[Nle][S5]NVIE[Nle]AL-NH2; staple 5-9)	++++ (≥50: ++++)
400 to 700	15 to 30	CC[C@H](C)[C@H](NC(=O)[C@H](Cc1ccccc1)NC(C)=O)C(=O)N[C@@H](CC(=O)O)C(=O)N[C@@H](CCC(N)=O)C(=O)N[C@@H](CCC(=O)O)C(=O)N[C@H](C(=O)N[C@@H](CC(C)C)C(=O)N[C@@H](CCSC)C(=O)N[C@@]1(C)CCCC=CCCC[C@@](C)(C(=O)N[C@@H](CCSC)C(=O)N[C@@H](C)C(=O)N[C@@H](CC(C)C)C(N)=O)NC(=O)[C@H]([C@@H](C)CC)NC(=O)[C@H](C(C)C)NC(=O)[C@H](CC(C)C)NC1=O)C(C)C [SP-233] (Ac-FIDQEVLM[S5]LVI[S5]MAL-NH2; staple 9-13)	+++ (≤25 but <50: +++)
